How the values were obtained:
Assay in all cases: karenitecin treatment of PDX model
Format in all cases: in vivo
Design in all cases: key to Response: responder: responded to karenitecin treatment (AUC<0.5 and TGI>0.8); non_responder: did not respond to karenitecin treatment (AUC>0.5 and TGI<0.6)
Conditions in all cases: karenitecin treatment for two weeks
[1] = tested on: PDX ES0212
Protocol: (§1) A cohort of 48 PDX models in 8 cancers were used in this study. Those models were subject to karenitecin treatment for two weeks. Both tumor growth inhibition (TGI) and median AUC (area under curve) ratio, a newly developed metric to evaluate drug efficacy, were calculated (Table 1). Those models can be divided into two categories according to TGI and median AUC ratio.

[2] = tested on: PDX LU1235
Protocol: as §1

[3] = tested on: PDX GA3102
Protocol: as §1

[4] = tested on: PDX LU1155
Protocol: as §1

[5] = tested on: PDX OV0276
Protocol: as §1

[6] = tested on: PDX LU0884
Protocol: as §1

[7] = tested on: PDX PA1301
Protocol: as §1

[8] = tested on: PDX OV0243
Protocol: as §1

[9] = tested on: PDX ES0201
Protocol: as §1

[10] = tested on: PDX GL1208
Protocol: as §1

[11] = tested on: PDX CR0126
Protocol: as §1

[12] = tested on: PDX OV1658
Protocol: as §1

[13] = tested on: PDX ES0042
Protocol: as §1

[14] = tested on: PDX PA3065
Protocol: as §1

[15] = tested on: PDX CR6249
Protocol: as §1

[16] = tested on: PDX ES2267
Protocol: as §1

[17] = tested on: PDX LU1901
Protocol: as §1

[18] = tested on: PDX ES0176
Protocol: as §1

CC[C@@]1(O)C(=O)OCc2c1cc1n(c2=O)Cc2c-1nc1ccccc1c2CC[Si](C)(C)C [karenitecin]
Median AUC ratio [1]: 0.061 | Response [1]: responder | TGI [1]: 1.017 | Median AUC ratio [2]: −0.018 | Response [2]: responder | TGI [2]: 0.932 | Median AUC ratio [3]: 0.084 | Response [3]: responder | TGI [3]: 1.061 | Median AUC ratio [4]: 0.406 | Response [4]: responder | TGI [4]: 0.991 | Median AUC ratio [5]: 0.314 | Response [5]: responder | TGI [5]: 1.103 | Median AUC ratio [6]: 1.497 | Response [6]: non_responder | TGI [6]: −0.188 | Median AUC ratio [7]: 1.038 | Response [7]: non_responder | TGI [7]: 0.285 | Median AUC ratio [8]: −1.983 | Response [8]: responder | TGI [8]: 1.449 | Median AUC ratio [9]: 1.093 | Response [9]: non_responder | TGI [9]: 0.529 | Median AUC ratio [10]: 0.811 | Response [10]: non_responder | TGI [10]: 0.135 | Median AUC ratio [11]: 1.399 | Response [11]: non_responder | TGI [11]: −0.308 | Median AUC ratio [12]: 0.764 | Response [12]: non_responder | TGI [12]: 0.433 | Median AUC ratio [13]: −0.100 | Response [13]: responder | TGI [13]: 1.128 | Median AUC ratio [14]: 0.309 | Response [14]: responder | TGI [14]: 1.019 | Median AUC ratio [15]: −0.712 | Response [15]: responder | TGI [15]: 1.253 | Median AUC ratio [16]: −0.288 | Response [16]: responder | TGI [16]: 1.240 | Median AUC ratio [17]: −0.295 | Response [17]: responder | TGI [17]: 1.077 | Median AUC ratio [18]: 1.242 | Response [18]: non_responder | TGI [18]: −0.177
